From patent US20140235592A1, “SUBSTITUTED 6-METHOXY-4-AMINO-N-PHENYL-2-NAPHTAMIDES AS SPHINGOSINE RECEPTOR MODULATORS” (Allergan, Inc., priority 2013, published 2014) come the findings set out here.

As a reminder, the EC50 is the midpoint of the concentration-response curve.

T1 sequence (P21453 whole entry): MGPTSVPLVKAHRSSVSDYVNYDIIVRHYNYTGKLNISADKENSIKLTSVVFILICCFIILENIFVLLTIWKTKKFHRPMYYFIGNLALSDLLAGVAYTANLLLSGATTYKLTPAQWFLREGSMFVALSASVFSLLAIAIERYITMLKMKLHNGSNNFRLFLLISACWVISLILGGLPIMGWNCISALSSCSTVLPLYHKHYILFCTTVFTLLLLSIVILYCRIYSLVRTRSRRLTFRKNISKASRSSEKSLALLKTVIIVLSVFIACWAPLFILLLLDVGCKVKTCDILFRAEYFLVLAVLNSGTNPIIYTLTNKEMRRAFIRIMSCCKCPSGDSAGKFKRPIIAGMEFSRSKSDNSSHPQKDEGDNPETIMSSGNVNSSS

This experiment addresses T1, human S1P1 receptor (Homo sapiens, UniProt P21453).
T1 construct: expressed in transfected cells; membranes used
Briefly: GTP γ35S binding assay for S1P1 activity. It counts as biochemical. The settings on record: membranes of cells stably expressing the S1P1 receptor, test concentrations 0.08 to 5,000 nM. Here is the method:
Compounds were tested for S1 P1 activity using the GTP γ^35S binding assay. These compounds may be assessed for their ability to activate or block activation of the human S1 P1 receptor in cells stably expressing the S1 P1 receptor. GTP γ^35S binding was measured in the medium containing (mM) HEPES 25, pH 7.4, MgCl2 10, NaCl 100, dithiothreitol 0.5, digitonin 0.003%, 0.2 nM GTP γ^355, and 5 μg membrane protein in a volume of 150 μl. Test compounds were included in the concentration range from 0.08 to 5,000 nM unless indicated otherwise. Membranes were incubated with 100 μM 5′-adenylylimmidodiphosphate for 30 min, and subsequently with 10 μM GDP for 10 min on ice. Drug solutions and membrane were mixed, and then reactions were initiated by adding GTP γ^35S and continued for 30 min at 25° C. Reaction mixtures were filtered over Whatman GF/B filters under vacuum, and washed three times with 3 mL of ice-cold buffer (HEPES 25, pH7.4, MgCl2 10 and NaCl 100). Filters were dried and mixed with scintillant, and counted for ^35S activity using a β-counter. Agonist-induced GTP γ^355 binding was obtained by subtracting that in the absence of agonist. Binding data were analyzed using a non-linear regression method. In case of antagonist assay, the reaction mixture contained 10 nM S1P in the presence of test antagonist at concentrations ranging from 0.08 to 5000 nM.
On the technique in general: GTPγS is a poorly hydrolysed GTP analogue; its binding reports G protein activation.
On to `CCCN(C)c1cc(C(=O)Nc2ccc(CNCCCP(=O)(O)O)cc2)cc2ccc(OC)cc12` [Compound 8, [3-({4-[({6-methoxy-4-[methyl(propyl)amino]naphthalen-2-yl}carbonyl)amino]benzyl}amino)propyl]phosphonic acid], for which a half-maximal response (EC50) required 160 nM.

In turn, `CCN(CC)c1cc(C(=O)Nc2ccc(CNCCCP(=O)(O)O)cc2)cc2ccc(OC)cc12` [Compound 7, (3-{[4-({[4-(diethylamino)-6-methoxynaphthalen-2-yl]carbonyl}amino)benzyl]amino}propyl)phosphonic acid] returned an EC50 of 95 nM.

`CCN(CC1CC1)c1cc(C(=O)Nc2ccc(CNCCCP(=O)(O)O)cc2)cc2ccc(OC)cc12` [Compound 5, [3-({4-[({4-[(cyclopropylmethyl)(ethyl)amino]-6-methoxynaphthalen-2-yl}carbonyl)amino]benzyl}amino)propyl]phosphonic acid] had an EC50 of 401 nM.

Molecule `COc1ccc2cc(C(=O)Nc3ccc(CNCCCP(=O)(O)O)cc3)cc(N(C)CC3CC3)c2c1` [Compound 3, [3-({4-[({4-[(cyclopropylmethyl)(methyl)amino]-6-methoxynaphthalen-2-yl}carbonyl)amino]benzyl}amino)propyl]phosphonic acid] gave a 50% effective concentration (EC50) of 138 nM.

For the molecule `COc1ccc2cc(C(=O)Nc3ccc(CNCCCP(=O)(O)O)cc3)cc(N(C)C)c2c1` [Compound 9, (3-{[4-({[4-(dimethylamino)-6-methoxynaphthalen-2-yl]carbonyl}amino)benzyl]amino}propyl)phosphonic acid], the EC50 worked out at 494 nM.
